Data as given in patent publication US20210330611A1, “THERAPY FOR NEUROLOGICAL DISEASES/DISORDERS” (priority 2020, published 2021).
pIC50: −log10 of the molar value. “And” between values parts separate entries of the source, which are not always exact repeats. Identical values can stand only once. Counter-ions that a name gives are not always drawn. Like-named read-outs stand apart in the source and are kept apart here.

Experiments:
[1] = tested on: LPS-induced microglia activation; assay: Image-based assay of LPS-induced microglia activation (HTS and dose response); format: cell-based, rat; settings: for pIC50 / inhibition at 10 µM / IC50: Rattus norvegicus, Microglia; for pIC50: read-out: LPS IC50; for inhibition at 10 µM: read-out: LPS % inhibition; for IC50: read-out: LPS IC50 (uM) (Suppl. Table 7)
primary rat microglia [2] = assay: Cell toxicity (dead cells, size <150 μm2) in LPS assay
[3] = tested on: fibrin- and LPS-induced microglia activation; assay: cells; format: cell-based, rat; settings: for inhibition at 10 µM: Rattus norvegicus, Microglia
[4] = tested on: fibrin-induced microglia activation; assay: Image-based assay of fibrin-induced microglia activation (HTS and dose response); format: cell-based, rat; settings: for pIC50 / IC50 / inhibition at 10 µM: Rattus norvegicus, Microglia; for pIC50: read-out: Fibrin IC50; for IC50: read-out: Fibrin IC50 (uM) (Suppl. Table 7); for inhibition at 10 µM: read-out: Fibrin % inhibition
primary rat microglia [5] = assay: Cell toxicity (dead cells, size <150 μm2) in coated fibrin (cFib) assay;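 note: share of dead cells sized under 150 µm2 at 10 µM in fibrin-stimulated microglia HTS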
primary rat microglia [6] = tested on: primary rat microglia
[7] = primary HTS, 10 μM, LPS assay, dead cells size <150 μm2
[8] = primary microglia HTS, LPS stimulation, toxicity = cell size <150 μm2
[9] = primary microglia HTS, fibrin stimulation, toxicity = cell size <150 μm2
[10] = quadrant by fibrin and LPS inhibition in HTS of 1907 compounds
[11] = primary microglia HTS, LPS stimulation, activation = cell size >800 μm2
[12] = primary microglia HTS, fibrin stimulation, activation = cell size >800 μm2
[13] = 48 h, Table 1, dose response 0.001-20 μM, triplicates, primary rat microglia, 48 h
[14] = HTS of 1907 compounds, quadrant by fibrin and LPS inhibition
[15] = primary microglia HTS, LPS stimulation, compounds at 10 μM
[16] = primary microglia HTS, fibrin assay, dead cells (size <150 μm2)
[17] = quadrant by fibrin and LPS inhibition, HTS at 10 μM
[18] = primary microglia HTS, fibrin stimulation, compounds at 10 μM
[19] = primary microglia HTS, 10 μM, LPS-stimulated, cell size >800 μm^2 as marker of activation
[20] = primary microglia HTS, 10 μM, LPS assay, cell size <150 μm^2 as marker of toxicity
[21] = primary microglia HTS, 10 μM, fibrin-stimulated, cell size >800 μm^2 as marker of activation
[22] = primary microglia HTS, fibrin assay, dead cells (size <150 μm2), compounds at 10 μM
[23] = classification by fibrin and LPS inhibition, HTS at 10 μM

CN(C)[C@@H]1C(=O)C(C(N)=O)=C(O)[C@@]2(O)C(=O)C3=C(O)c4c(O)ccc(Cl)c4[C@@](C)(O)[C@H]3C[C@@H]12
LPS % inhibition ([1]; primary HTS, 10 μM, LPS-stimulated primary microglia): 23%
LPS % cell toxicity (primary rat microglia [2]; [7]): 0%
Quadrant (FIG. 5b) ([3]; primary HTS, 10 μM): Q4
Fibrin % inhibition ([4]; primary HTS, 10 μM, fibrin-stimulated primary microglia): 27%

CN(C)CC/C=C1/c2ccccc2Sc2ccc(Cl)cc21 [Chlorprothixene]
LPS % cell toxicity (primary rat microglia [2]; [7]): 1% and 0%
Fibrin % cell toxicity (primary rat microglia [5]; primary HTS, 10 μM, fibrin assay, dead cells size <150 μm2): 1%
Quadrant (FIG. 5b) ([3]; primary HTS, 10 μM): Q4

Oc1ccc(C2CNCCc3c2cc(O)c(O)c3Cl)cc1 (stereo not drawn) [Fenoldopam]
LPS % cell toxicity (primary rat microglia [2]; [8]): 0%
Fibrin % cell toxicity (primary rat microglia [5]; [9]): 1% and 0%
Quadrant (FIG. 5b) [3, 10]: Q4

CC(C)(C)NC(=O)[C@H]1CC[C@H]2[C@@H]3CC[C@H]4NC(=O)C=C[C@]4(C)[C@H]3CC[C@]12C [Finasteride]
LPS % cell toxicity (primary rat microglia [2]; [8]): 1% and 0%
Fibrin % cell toxicity (primary rat microglia [5]; [9]): 1% and 0%
Quadrant (FIG. 5b) [3, 10]: Q4

Br.COc1ccc2c3c1O[C@H]1C[C@@H](O)C=C[C@@]31CCN(C)C2 [Galanthamine Hydrobromide, Galantamine]
LPS % inhibition [1, 11]: 9%
LPS % cell toxicity (primary rat microglia [2]; [8]): 0%
Quadrant (FIG. 5b) [3, 10]: Q4
Fibrin % inhibition [4, 12]: 10%

N=C(N)NC(=O)Cc1c(Cl)cccc1Cl [Guanfacine]
LPS % cell toxicity (primary rat microglia [2]; [8]): 0%
Fibrin % cell toxicity (primary rat microglia [5]; [9]): 1%
Quadrant (FIG. 5b) [3, 10]: Q4

CC(=O)[C@@]1(O)CC[C@H]2[C@@H]3CCC4=CC(=O)CC[C@]4(C)[C@H]3CC[C@@]21C [Hydroxyprogesterone]
LPS % inhibition [1, 11]: 33%
LPS % cell toxicity (primary rat microglia [2]; [8]): 1%
Quadrant (FIG. 5b) [3, 10]: Q4
Fibrin % inhibition [4, 12]: 9%

OCCOCCN1CCN(C(c2ccccc2)c2ccc(Cl)cc2)CC1 (stereo not drawn) [Hydroxyzine]
LPS % cell toxicity (primary rat microglia [2]; [8]): 0%
Fibrin % cell toxicity (primary rat microglia [5]; [9]): 0% and 1%
Quadrant (FIG. 5b) [3, 10]: Q4

CCCCCN(C)CCC(O)(P(=O)(O)O)P(=O)(O)O [Ibandronate]
LPS % cell toxicity (primary rat microglia [2]; [8]): 0%
Fibrin % cell toxicity (primary rat microglia [5]; [9]): 0% and 1%
Quadrant (FIG. 5b) [3, 10]: Q4

O=[N+]([O-])O[C@H]1CO[C@H]2[C@@H]1OC[C@H]2O[N+](=O)[O-] [Isosorbide Dinitrate]
LPS % cell toxicity (primary rat microglia [2]; [8]): 0%
Fibrin % cell toxicity (primary rat microglia [5]; [9]): 0%

Nc1ccn([C@@H]2CS[C@H](CO)O2)c(=O)n1 [Lamivudine]
LPS % cell toxicity (primary rat microglia [2]; [8]): 0%
Fibrin % cell toxicity (primary rat microglia [5]; [9]): 1%
Quadrant (FIG. 5b) [3, 10]: Q4

CC(Oc1c(Cl)cccc1Cl)C1=NCCN1 (stereo not drawn) [Lofexidine]
LPS % cell toxicity (primary rat microglia [2]; [8]): 0%
Fibrin % cell toxicity (primary rat microglia [5]; [9]): 0% and 1%
Quadrant (FIG. 5b) [3, 10]: Q4

CCN(CC)C(=O)C1(c2ccccc2)CC1CN (stereo not drawn) [Milnacipran hydrochloride, reference compound]
pIC50 [1, 13]: 4.70
inhibition at 10 µM ([1]; 48 h, primary microglia HTS, LPS stimulation, increased cell size (>800 μm^2) as marker of activation): 31%
IC50 ([1]; LPS-induced microglia activation, dose response): 20 µM
IC50 ([1]; Table 3): 20 µM
pIC50 ([1]; dose response, LPS-induced microglia activation): 4.70
LPS % cell toxicity (primary rat microglia [2]; primary microglia HTS, LPS stimulation, decreased size (<150 μm^2) as marker of toxicity): 1%
Quadrant (FIG. 5b) [3, 14]: Q3
inhibition at 10 µM ([3]; Table 3, read-out: Cherry-picked Hit (Suppl. Table 7)): > 50%
inhibition at 10 µM ([3]; HTS hit classification, read-out: Hit): > 50%
Quadrant (FIG. 5b) ([3]; Table 1, screen at 10 μM): Q3
Quadrant (FIG. 5b) ([3]; Table 3, screen at 10 μM): Q3
Quadrant (FIG. 5b) [3, 10]: Q3
pIC50 [4, 13]: 5.10
IC50 ([4]; Table 3): 8 µM
pIC50 ([4]; dose response, fibrin-induced microglia activation): 5.10
IC50 ([4]; fibrin-induced microglia activation, dose response): 8 µM
inhibition at 10 µM ([4]; primary microglia HTS, fibrin stimulation, increased cell size (>800 μm^2) as marker of activation): 72%

C=C(NC(=O)C(=C)NC(=O)c1csc(C2=N[C@@H]3c4csc(n4)[C@H]4NC(=O)c5csc(n5)[C@H]([C@](C)(O)[C@@H](C)O)NC(=O)[C@H]5CSC(=N5)/C(=C/C)NC(=O)[C@H]([C@@H](C)O)NC(=O)c5csc(n5)[C@]3(CC2)NC(=O)[C@H](C)NC(=O)C(=C)NC(=O)[C@H](C)NC(=O)[C@H]([C@@H](C)CC)N[C@@H]2C=Cc3c([C@H](C)O)cc(nc3[C@H]2O)C(=O)O[C@@H]4C)n1)C(N)=O [Thiostrepton]
LPS % cell toxicity (primary rat microglia [6]; rat): 1%
inhibition at 10 µM [1, 15]: 65%
Fibrin % cell toxicity (primary rat microglia [5]; [16]): 64%
Quadrant (FIG. 5b) [3, 17]: Q2
inhibition at 10 µM [4, 18]: 109%

CCNC1(c2cccs2)CCCCC1=O.Cl (stereo not drawn) [Tiletamine Hydrochloride]
LPS % inhibition [1, 19]: 22%
LPS % cell toxicity (primary rat microglia [2]; [20]): 0%
Quadrant (FIG. 5b) [3, 14]: Q4
Fibrin % inhibition [4, 21]: 8%

COc1cccc(C2(O)CCCCC2CN(C)C)c1 (stereo not drawn) [Tramadol Hydrochloride]
LPS % cell toxicity (primary rat microglia [2]; [20]): 0%
Fibrin % cell toxicity (primary rat microglia [5]; primary microglia HTS, 10 μM, fibrin assay, cell size <150 μm^2 as marker of toxicity): 0%

CC1(C)O[C@@H]2C[C@H]3[C@@H]4CCC5=CC(=O)C=C[C@]5(C)[C@@]4(F)[C@@H](O)C[C@]3(C)[C@]2(C(=O)CO)O1 [Triamcinolone Acetonide]
LPS % cell toxicity (primary rat microglia [6]; rat): 4%
inhibition at 10 µM [1, 15]: 104%
Fibrin % cell toxicity (primary rat microglia [5]; [16]): 4%
Quadrant (FIG. 5b) [3, 17]: Q2
inhibition at 10 µM [4, 18]: 111%

CC[C@H]1OC(=O)C[C@@H](O)[C@H](C)[C@@H](O[C@@H]2O[C@H](C)[C@@H](O[C@H]3C[C@@](C)(O)[C@@H](O)[C@H](C)O3)[C@H](N(C)C)[C@H]2O)[C@@H](CC=O)C[C@@H](C)C(=O)/C=C/C(C)=C/[C@@H]1CO[C@@H]1O[C@H](C)[C@@H](O)[C@@H](OC)[C@H]1OC.O=C(O)C(O)C(O)C(=O)O [Tylosin Tartrate]
LPS % inhibition [1, 19]: 11%
LPS % cell toxicity (primary rat microglia [2]; [20]): 0%
Quadrant (FIG. 5b) [3, 14]: Q4
Fibrin % inhibition [4, 21]: 9%

Acetophenazine Maleate
LPS % cell toxicity (primary rat microglia [6]): 0%
LPS % inhibition [1, 15]: 15%
Fibrin % cell toxicity (primary rat microglia [5]; [16]): 1%
Quadrant (FIG. 5b) [3, 17]: Q4
Fibrin % inhibition [4, 18]: 34%

Apramycin Sulfate
LPS % cell toxicity (primary rat microglia [6]): 1%
LPS % inhibition [1, 15]: 25%
Fibrin % cell toxicity (primary rat microglia [5]; [16]): 1%
Quadrant (FIG. 5b) [3, 17]: Q4
Fibrin % inhibition [4, 18]: 11%

Arsenic Trioxide
LPS % cell toxicity (primary rat microglia [6]): 0%
LPS % inhibition [1, 15]: 14%
Fibrin % cell toxicity (primary rat microglia [5]; [16]): 1%
Quadrant (FIG. 5b) [3, 17]: Q4
Fibrin % inhibition [4, 18]: 14%

Cyanocobalamin
LPS % cell toxicity (primary rat microglia [6]): 0%
LPS % inhibition [1, 15]: 11%
Fibrin % cell toxicity (primary rat microglia [5]; [22]): 1%
Quadrant (FIG. 5b) [3, 23]: Q4
Fibrin % inhibition [4, 18]: −1%

Eprinomectin
LPS % cell toxicity (primary rat microglia [6]): 1%
LPS % inhibition [1, 15]: 8%
Fibrin % cell toxicity (primary rat microglia [5]; [22]): 1%
Quadrant (FIG. 5b) [3, 23]: Q4
Fibrin % inhibition [4, 18]: −3%

Pizotyline Malate
LPS % cell toxicity (primary rat microglia [6]): 1%
LPS % inhibition [1]: 37%
Fibrin % cell toxicity (primary rat microglia [5]; primary microglia HTS, fibrin stimulation, cell size <150 μm2 as marker of toxicity): 1%
Quadrant (FIG. 5b) ([3]; classification by fibrin and LPS inhibition in HTS): Q4
Fibrin % inhibition ([4]; primary microglia HTS, fibrin stimulation, cell size >800 μm2 as marker of activation): 8%
